How the values were obtained:
GOX = GOX (Aspergillus niger, UniProt P13006); test: Glucose oxidase (GOX) activity, spectrophotometric assay; assay type: biochemical; conditions: cysteine 1-0.1 mg/ml (FIG. 1)
Description: The natural enzyme GOX is an oxidoreductase that catalyses the oxidation of glucose to gluconic acid and hydrogen peroxide (H2O2) in the presence of water and air. To measure the enzymatic activity of GOX, a standard spectrophotometric assay is performed. In brief, a second oxidoreductase enzyme, peroxidase, and a chromogenic oxygen acceptor, o-dianisidine, are added to the former reaction mix (GOX+glucose+water+air) so that the formation of a coloured compound is achieved that can in turn be measured by spectrophotometry. GOX was tested in 4 different concentrations, i.e., 100, 50, 10 and 1 mg/ml. Each reaction mixture was tested in duplo. In the event GOX activity was evaluated in the presence of a potentiator candidate (=a molecule that might be able to augment the enzymatic activity of GOX), the latter was added in a low and high concentration ranging from 100 to 0.1 mg/ml. The blank consisted of the reaction mix in which the enzymes were absent. After mixing all reaction elements, absorbance was immediately measured with a plate reader (Spectramax ID3, Molecular Devices) every minute for 5 minutes at 35° C. For each combination evaluated, this test was repeated at least 2 times. Results were further analysed in MS Excel and expressed as U/g. Mean blank-corrected data±SD were plotted. Statistical significance compared to the combination without potentiator candidate (reference) was calculated using students' t-tests. Significance is achieved when the obtained p-value is lower than 0,05. Significance levels were defined as p<0.05=*; p<0.01=** and p<0.001=***.

S. aureus (ATCC®6538™) = test: Microbial challenge testing in alginogel with GOX+LPO; assay type: cell-based; conditions: for antimicrobial efficacy against S. aureus of halide alone, 0 vs 80 minute timepoint: alginogel, halide alone (without enzymes) 0.03% (v/v)
Description: To determine the ability of an antimicrobial agent to elicit an antimicrobial preserving efficacy in a gel environment, a microbiological challenge test can be performed. Here, the antimicrobial agent is a combination of the natural enzymes GOX+LPO. […] Microbial challenge testing was performed according to the method described in the European Pharmacopoeia current version chapter 5.1.3 ‘Efficacy of antimicrobial preservation’, but with adapted time points (0, 10, 20, 30, 40, 50, 60, 70 and 80 min instead of 0, 2, 7, 14 and 28 days). In brief, for every enhancing agent to be evaluated, a lab-scale alginogel (based on the Flaminal® formulation, but without the original enhancer guaiacol) including 0.0075% GOX+LPO (1:1) was prepared according to standard practices. Enhancing agents were added to the alginogel in a final concentration ranging from 0.01 to 0,00025% (v/w). As a reference, an alginogel including 0.0075% GOX+LPO (1:1) without the addition of any enhancing agent was included (designated as: enzymes only). As a control, an alginogel without both GOX+LPO (1:1) enzyme solution and enhancing agent (designated as: empty gel) as well as an alginogel only containing the enhancing agent only (designated as: enhancing candidate only) were included. After preparation, a homogenous sample of 10 g was transferred into a 50 ml conical tube for each alginogel to be evaluated and microorganism to be tested. For each test microorganism, including S. aureus (ATCC®6538™), P. aeruginosa (ATCC®9027™), C. albicans (ATCC®10231™) and A. niger (ATCC®16404 ™), a microbial suspension of about 10^8 CFU/ml was prepared in sterile diluent (buffered sodium chloride-peptone solution). Then, the 50 ml conical tubes containing the alginogel samples to be evaluated were inoculated with 100 μl of the designated inoculum. At the start (time point 0) and after 0, 10, 20, 30, 40, 50, 60, 70 and 80 min, the number of viable microorganisms per gram product (expressed as CFU/g) was determined by transferring a sample of 0.5 g of the product into a 15 ml conical tube containing 4.5 ml of sterile diluent and applying general dilution and plate count techniques. For each combination evaluated, this test was repeated at least 1-3 times. The collected data were further analyzed in MS Excel. Mean absolute counts (expressed as log CFU/g) were visualized in a graph.
The purpose of the hereby described experiment was to compare the efficacy of antimicrobial activity enhancement of the GOX+LPO (1:1) enzyme combination by ethanolamine and proline in a microbial challenge test using S. aureus. The test was set up as described in the section on ‘challenge testing’ in Example 2.4. The test was repeated at least 3 times.
The purpose of the hereby described experiment was to compare the efficacy of antimicrobial activity of the GOX+LPO (1:1) enzyme combination in the presence of potassium chloride/potassium bromide and potassium iodide. A microbial challenge test using S. aureus was performed. The test was set up as described in the section on ‘challenge testing’ in Example 2.4.

[1] = system: Staphylococcus aureus ATCC® 6538™; test: MIC determination, broth microdilution, GOX+LPO with potentiator candidate; assay type: cell-based; conditions: S. aureus; guaiacol added as enhancing agent
Description: (§1) The minimum inhibitory concentration (MIC) is defined as the lowest concentration of an antimicrobial agent that results in a complete inhibition of microbial growth (determined via visual evaluation or absorbance measurements) after overnight incubation. This endpoint measurement is used to define the microbial susceptibility towards an antimicrobial agent. Here, the antimicrobial agent is a combination of the natural enzymes GOX+LPO.
(§2) To determine the MIC of the described combinations, a classical broth microdilution assay was used to determine the susceptibility of a series of microbes commonly detected in infected wounds, including (a) the Gram-positive bacterium Staphylococcus aureus ATCC® 6538™ (results shown below), (b) the Gram-negative bacterium Pseudomonas aeruginosa ATCC®9027™ (results shown below), (c) the yeast Candida albicans ATCC®10231™ (results shown below), and (d) the fungus Aspergillus niger ATCC®16404™ (results shown below). In brief, a […] serial dilution of the enzymatic GOX+LPO solution was prepared in a transparent, flat-bottomed 96-well test plate with final concentrations ranging from 0.005 to 0.00000977% (v/v). To each well, a fixed volume of the enzymatic substrate containing 3,3% (w/v) glucose and 0,084% (w/v) potassium iodide, as well as the microbial inoculum with an OD600 of 0.1 was added. In the event the enzyme combination was evaluated in the presence of a potentiator candidate, the latter was added together with the enzymatic substrate in a final concentration ranging from 100 to 0,00125% (v/v). For each combination evaluated, a blank (no addition of microbial inoculum) was included. Positive (inoculum only) and negative (background solution only) were included to evaluate the performance of the test and to select the enzymatic GOX+LPO concentration at which no microbial growth is detected (i.e., absorbance equal to that of the background solution only). Then, the 96-well test plate was incubated for 24 hours at 37° C. (S. aureus, P. aeruginosa and C. albicans) or 25° C. (A. niger). After incubation, the absorbance of each well was measured using a plate spectrophotometer (Spectramax ID3, Molecular Devices). For each combination evaluated, this test was repeated at least 5 times. The collected data were further analyzed in MS Excel. Mean absorbance data were visualized in a table format in which the MIC was highlighted.

[2] = system: Pseudomonas aeruginosa ATCC®9027™; test: as above; assay type: cell-based; conditions: P. aeruginosa; guaiacol added as enhancing agent
Description: as §1, §2

[3] = system: Pseudomonas aeruginosa ATCC®9027™; test: MBC determination, broth microdilution with CFU enumeration; assay type: cell-based; conditions: P. aeruginosa; guaiacol added as enhancing agent
Description: The minimal bactericidal concentration (MBC) is defined as the lowest concentration of an antimicrobial agent that results in a complete killing of the microbial population (determined via standard CFU enumeration techniques) after overnight incubation. This endpoint measurement is used, together with the MIC (see above), to define the microbial susceptibility towards an antimicrobial agent. Here, the antimicrobial agent is a combination of the natural enzymes GOX+LPO.
To determine the MBC of the described combinations, a classical broth microdilution assay combined with standard CFU enumeration techniques was used to determine the susceptibility of a series of microbes commonly detected in infected wounds, including (a) the Gram-positive bacterium Staphylococcus aureus ATCC® 6538™ (results shown below), (b) the Gram-negative bacterium Pseudomonas aeruginosa ATCC®9027™ (results shown below), (c) the yeast Candida albicans ATCC®10231™ (results shown below), and (d) the fungus Aspergillus niger ATCC®16404™ (results shown below). In brief, the broth microdilution assay was set up as previously described (see 2.1). After incubation, the MBC was determined by investigating the presence of viable microorganisms at the MIC and following higher concentrations (MICx2, MICx4, and so on) using standard CFU enumeration techniques. For each combination evaluated, this test was repeated at least 5 times. The collected data were further analyzed in MS Excel. Mean concentration data (expressed as log CFU/ml) were visualized in a table format in which the MBC was highlighted.

Lactoperoxidase = Lactoperoxidase (Bos taurus, UniProt P80025); test: Lactoperoxidase (LPO) activity, spectrophotometric assay (ABTS); assay type: biochemical; conditions: concentration not given
Description: Lactoperoxidase is a member of the heme peroxidase family of enzymes that, together with a catalytic anion (such as I^−, derived from KI, present in the substrate), will catalyse the oxidation of H2O2, leading to hypojodite (IO^−). This hypojodite is a reactive oxygen species (ROS). To measure the enzymatic activity of LPO, a standard spectrophotometric assay is performed. In brief, H2O2 combined with 2,2′-azino-bis (3-ethylbenzothiazoline-6-sulfonzuur (ABTS) is catalysed by LPO so that the formation of a coloured compound is achieved that can in turn be measured by spectrophotometry. LPO was tested in 3 different concentrations, i.e., 50, 10 and 1 mg/ml. Each reaction mixture was tested in duplo. In the event LPO activity was evaluated in the presence of a potentiator candidate (=a molecule that might be able to augment the enzymatic activity of LPO), the latter was added in a low and high concentration ranging from 100 to 0.1 mg/ml. The blank consisted of the reaction mix in which H2O2 was absent. The absorbance was immediately measured with a plate reader (Spectramax ID3, Molecular Devices) every 12 seconds for 5 minutes at 20° C. For each combination evaluated, this test was repeated at least 2 times. Results were further analysed in MS Excel and expressed as U/g. Mean blank-corrected data±SD were plotted. Statistical significance compared to the combination without potentiator candidate (reference) was calculated using students' t-tests. Significance is achieved when the obtained p-value is lower than 0,05. Significance levels were defined as p<0.05=*; p<0.01=** and p<0.001=***.

Chain of GOX (P13006 17-605): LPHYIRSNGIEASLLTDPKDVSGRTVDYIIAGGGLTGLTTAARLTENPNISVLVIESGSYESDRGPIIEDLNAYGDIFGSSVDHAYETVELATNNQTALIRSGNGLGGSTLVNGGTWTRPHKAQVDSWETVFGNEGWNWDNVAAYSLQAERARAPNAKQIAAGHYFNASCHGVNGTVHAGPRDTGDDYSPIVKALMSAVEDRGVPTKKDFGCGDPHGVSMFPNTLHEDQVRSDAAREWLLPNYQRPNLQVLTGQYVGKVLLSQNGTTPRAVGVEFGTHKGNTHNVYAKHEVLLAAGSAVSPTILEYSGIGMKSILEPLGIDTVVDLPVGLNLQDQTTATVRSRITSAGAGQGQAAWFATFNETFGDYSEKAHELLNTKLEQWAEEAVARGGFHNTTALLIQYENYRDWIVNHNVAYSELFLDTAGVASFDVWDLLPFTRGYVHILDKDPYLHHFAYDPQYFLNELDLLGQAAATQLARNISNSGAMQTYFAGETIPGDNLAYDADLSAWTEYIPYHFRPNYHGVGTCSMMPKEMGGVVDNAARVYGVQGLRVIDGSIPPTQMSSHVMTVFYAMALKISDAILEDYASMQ

N[C@@H](CS)C(=O)O [cysteine, reference compound]
GOX activity compared to reference (GOX): significant lower GOX activity

[Br-].[K+] [KBr, potassium bromide, reference compound]
antimicrobial efficacy against S. aureus of halide alone, 0 vs 80 minute timepoint (S. aureus (ATCC®6538™)): did not result in any difference in antimicrobial efficacy

NCCO [ethanolamine, reference compound]
exposure time to complete reduction of absolute S. aureus counts (average) (S. aureus (ATCC®6538™); alginogel with GOX+LPO (1:1), enhancer 0,0005% (v/v)): 70 min

COc1ccccc1O [guaiacol, reference compound]
MIC: GOX+LPO enzyme solution needed to completely inhibit growth [1]: 0.0000781 % (v/v) | MIC: GOX+LPO enzyme solution needed to completely inhibit growth [2]: 0.00125 % (v/v) | MBC: GOX+LPO enzyme solution needed [3]: 0.00125 % (v/v)

CC(C)C[C@H](N)C(=O)O [leucine, reference compound]
LPO activity compared to reference (Lactoperoxidase): did not result in a significant difference

[I-].[K+] [KI, potassium iodide]
time to complete reduction of absolute S. aureus counts (S. aureus (ATCC®6538™); alginogel with GOX+LPO (1:1), halide 0,03% (v/v)): 70 min | time to complete reduction of absolute S. aureus counts (S. aureus (ATCC®6538™); alginogel with GOX+LPO (1:1), halide 0,003% (v/v)): 80 min | antimicrobial efficacy against S. aureus of halide alone, 0 vs 80 minute timepoint (S. aureus (ATCC®6538™)): did not result in any difference in antimicrobial efficacy

[Cl-].[K+] [KCl, potassium chloride, reference compound]
antimicrobial efficacy against S. aureus of halide alone, 0 vs 80 minute timepoint (S. aureus (ATCC®6538™)): did not result in any difference in antimicrobial efficacy

Source: patent US20260273028A1, “PEROXIDASE COMPOSITIONS CONTAINING IMPROVED ENHANCING AGENTS” (FLEN HEALTH PHARMA NV, priority 2022, published 2026)
